Assays:
Conditions in all cases: incubation time: 72 h
HCC1599 [1] = experiment: normalised response (% of control), CellTox Green; higher = less cell death (100 = DMSO, 0 = benzethonium chloride kill control)
In short: (§1)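 Breast cancer cell lines in 20 µl suspension were added to 384-well plates containing compound at 5 concentrations, spaced in 10-fold steps across a 10,000-fold range chosen for each compound, and incubated for 72 h. CellTox Green fluorescence was read at 485/520 nm, followed by CellTiter-Glo luminescence after 10 min at room temperature. Signals on each plate were normalised so that 0.1 % DMSO equals 100 and a positive kill control equals 0. Every value in the table is the normalised signal at one concentration of the series.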

BT-549 [2] = experiment: as above
In short: as §1

MDA-MB-436 [3] = experiment: as above
In short: as §1

MCF-10A [4] = experiment: as above
In short: as §1

CAL-51 [5] = experiment: as above
In short: as §1

HDQ-P1 [6] = experiment: as above
In short: as §1

Hs578T [7] = experiment: as above
In short: as §1

DU-4475 [8] = experiment: as above
In short: as §1

MDA-MB-468 [9] = experiment: as above
In short: as §1

CAL-120 [10] = experiment: as above
In short: as §1

CAL-148 [11] = experiment: as above
In short: as §1

MDA-MB-231 [12] = experiment: as above
In short: as §1

MFM-223 [13] = experiment: as above
In short: as §1

BT-474 [14] = experiment: as above
In short: as §1

MDA-MB-453 [15] = experiment: as above
In short: as §1

HCC1937 [16] = experiment: as above
In short: as §1

CAL-85-1 [17] = experiment: as above
In short: as §1

HCC1143 [18] = experiment: as above
In short: as §1

HCC1599 [19] = experiment: normalised response (% of control), CellTiter-Glo; higher = more viable cells (100 = DMSO, 0 = benzethonium chloride kill control)
Protocol: (§2)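 DSRT, 72 h incubation, CellTox Green / CellTiter-Glo readout. Signal is normalised to DMSO and benzethonium chloride controls. Value is the normalised response at dose 3.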

BT-549 [20] = experiment: as above
Protocol: as §2

MDA-MB-436 [21] = experiment: as above
Protocol: as §2

MCF-10A [22] = experiment: as above
Protocol: as §2

CAL-51 [23] = experiment: as above
Protocol: as §2

HDQ-P1 [24] = experiment: as above
Protocol: as §2

Hs578T [25] = experiment: as above
Protocol: as §2

DU-4475 [26] = experiment: as above
Protocol: as §2

MDA-MB-468 [27] = experiment: as above
Protocol: as §2

CAL-120 [28] = experiment: as above
Protocol: as §2

CAL-148 [29] = experiment: as above
Protocol: as §2

MDA-MB-231 [30] = experiment: as above
Protocol: as §2

MFM-223 [31] = experiment: as above
Protocol: as §2

BT-474 [32] = experiment: as above
Protocol: as §2

MDA-MB-453 [33] = experiment: as above
Protocol: as §2

HCC1937 [34] = experiment: as above
Protocol: as §2

SK-BR-3 = experiment: as above
Protocol: as §2

CAL-85-1 [35] = experiment: as above
Protocol: as §2

HCC1143 [36] = experiment: as above
Protocol: as §2

Row | SMILES | normalised response (HCC1599 [1]) [%] | normalised response (BT-549 [2]) [%] | normalised response (MDA-MB-436 [3]) [%] | normalised response (MCF-10A [4]) [%] | normalised response (CAL-51 [5]) [%] | normalised response (HDQ-P1 [6]) [%] | normalised response (Hs578T [7]) [%] | normalised response (DU-4475 [8]) [%] | normalised response (MDA-MB-468 [9]) [%] | normalised response (CAL-120 [10]) [%] | normalised response (CAL-148 [11]) [%] | normalised response (MDA-MB-231 [12]) [%] | normalised response (MFM-223 [13]) [%] | normalised response (BT-474 [14]) [%] | normalised response (MDA-MB-453 [15]) [%] | normalised response (HCC1937 [16]) [%] | normalised response (CAL-85-1 [17]) [%] | normalised response (HCC1143 [18]) [%] | normalised response (HCC1599 [19]) [%] | normalised response (BT-549 [20]) [%] | normalised response (MDA-MB-436 [21]) [%] | normalised response (MCF-10A [22]) [%] | normalised response (CAL-51 [23]) [%] | normalised response (HDQ-P1 [24]) [%] | normalised response (Hs578T [25]) [%] | normalised response (DU-4475 [26]) [%] | normalised response (MDA-MB-468 [27]) [%] | normalised response (CAL-120 [28]) [%] | normalised response (CAL-148 [29]) [%] | normalised response (MDA-MB-231 [30]) [%] | normalised response (MFM-223 [31]) [%] | normalised response (BT-474 [32]) [%] | normalised response (MDA-MB-453 [33]) [%] | normalised response (HCC1937 [34]) [%] | normalised response (SK-BR-3) [%] | normalised response (CAL-85-1 [35]) [%] | normalised response (HCC1143 [36]) [%]
1 | CCc1c2c(nc3ccc(OC(=O)N4CCC(N5CCCCC5)CC4)cc13)-c1cc3c(c(=O)n1C2)COC(=O)[C@]3(O)CC [Irinotecan] (100 nM) | 99.7 | 93.4 | 93.4 | 109 | 106 | 117 | 77.4 | 101 | 99.2 | 98.7 | 104 | 89.2 | 73.8 | 92.4 | 102 | 98 | 94.9 | 86 | 112 | 95.3 | 93.8 | 95.4 | 109 | 96.5 | 98 | 98.8 | 111 | 92.5 | 96.6 | 96.2 | 106 | 99.2 | 102 | 94.8 | 100 | 103 | 96
2 | CNC(=O)c1ccc(N2C(=S)N(c3ccc(C#N)c(C(F)(F)F)c3)C(=O)C2(C)C)cc1F [Enzalutamide] (100 nM) | 103 | 103 | 96.9 | 86.1 | 74.8 | 71.9 | 95.1 | 107 | 126 | 106 | 100 | 113 | 101 | 103 | 106 | 94.6 | 117 | 111 | 113 | 97.1 | 101 | 108 | 70.4 | 97.4 | 102 | 99.1 | 102 | 106 | 106 | 95.9 | 104 | 99.7 | 105 | 91.1 | 101 | 108 | 101
3 | COc1cc2c(NC3CCN(C(C)C)CC3)nc(N3CCC(F)(F)CC3)nc2cc1OCCCN1CCCC1 [UNC0642] (100 nM) | 99.2 | 101 | 63.9 | 99.4 | 98.1 | 80.7 | 90.2 | 97.5 | 131 | 101 | 89.8 | 107 | 101 | 100 | 108 | 72.7 | 105 | 65.3 | 93.7 | 96.5 | 97.9 | 94.8 | 97.9 | 99.6 | 98.6 | 89.9 | 105 | 92 | 96.5 | 95 | 96.2 | 103 | 108 | 90.3 | 96 | 98.5 | 96.1
4 | NC(=O)c1ccc(I)c([N+](=O)[O-])c1 [Iniparib] (100 nM) | 83.9 | 106 | 67.8 | 100 | 98.5 | 99.5 | 94.2 | 94.2 | 128 | 99.1 | 53.4 | 83 | 97.5 | 95.7 | 99.1 | 92.4 | 103 | 70.8 | 94 | 99 | 93 | 76.1 | 117 | 95 | 92.8 | 98.8 | 85.2 | 89.6 | 84.8 | 90.9 | 82.7 | 92 | 78.5 | 93.1 | 80.9 | 92 | 96.9
5 | COCC[n+]1c2c(n(Cc3cnccn3)c1C)C(=O)c1ccccc1C2=O [YM155] (100 nM) | 71.7 | 88.9 | 19.2 | -8.31 | 21.2 | -5.41 | 106 | 92.8 | -69.5 | -16.3 | 18.9 | 0.07 | 70.4 | -29.1 | 87.8 | 22.8 | -130 | 75.2 | 9.07 | 36.9 | 1.98 | 6.51 | 2.89 | 1.96 | 62 | 20.4 | 0.08 | -0.1 | 0.53 | 1.55 | 26.2 | 5.9 | 27.8 | 0.92 | 4.6 | -0.47 | 1.4
6 | COc1cc(O)c2c(c1)/C=C/C[C@H](O)[C@H](O)C(=O)/C=C\C[C@H](C)OC2=O [(5Z)-7-Oxozeaenol] (100 nM) | 108 | 91.1 | 104 |  | 109 | 85.9 | 79.4 | 96.9 | 107 | 104 |  | 109 | 105 | 104 | 102 | 105 |  | 89.1 | 91.2 | 76.2 | 104 | 84.8 | 103 | 84.1 | 98.9 | 76.1 | 92.9 | 101 | 101 | 104 | 103 | 95.4 | 108 | 92.4 | 108 | 88.5 | 99
7 | COCC1(CO)C(=O)C2CCN1CC2 (centres undefined) [Prima-1 Met] (100 nM) | 114 | 102 | 86.5 | 82 | 108 | 109 | 104 | 101 | 145 | 102 | 106 | 104 | 108 | 101 | 102 | 122 | 95.6 | 83.2 | 119 | 106 | 101 | 107 | 99.6 | 103 | 101 | 96.1 | 95.8 | 99.3 | 112 | 97.5 | 107 | 96.8 | 104 | 102 | 98.7 | 99.7 | 103
8 | CNC(=O)c1ccc(N2C(=S)N(c3ccc(C#N)c(C(F)(F)F)c3)C(=O)C23CCC3)cc1F [RD162] (100 nM) | 102 | 106 | 83.4 | 110 | 105 | 96.8 | 88 | 103 | 87.9 | 104 | 87 | 113 | 103 | 104 | 107 | 107 | 101 | 84.3 | 111 | 97.8 | 101 | 116 | 97.3 | 99.7 | 102 | 102 | 108 | 103 | 101 | 99.7 | 103 | 94.2 | 108 | 91.3 | 103 | 96.4 | 101
9 | O=C(/C=C/c1cccc(S(=O)(=O)Nc2ccccc2)c1)NO [Belinostat] (100 nM) | 104 | 100 | 93.2 |  | 83.8 | 104 | 103 | 99.4 | 131 | 99.2 | 101 | 76.3 | 84.1 | 96.7 | 100 | 89.8 | 94.8 | 95.4 | 92.3 | 99.3 | 83.6 | 81.3 | 63.4 | 83.7 | 95 | 86.4 | 83.6 | 87.5 | 79.8 | 85.5 | 85.6 | 95 | 62.3 | 83.9 | 82.7 | 85.6 | 89.1
